These results are taken from PubChem BioAssay AID248 (DTP/NCI, 2004).

The subject of the assay is L1210 leukemia ip in BDF1 mice, survival T/C. Briefly: NCI In Vivo Anticancer Drug Screen. Data for tumor model L1210 Leukemia (intraperitoneal) in B6D2F1 (BDF1) mice. As to conditions: endpoint: mean survival time, higher = longer survival. A digest of the protocol: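 Survival endpoint. Drug-treated group vs vehicle group, expressed as T divided by C. Tumor passaged by transplantation.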

Setting [1] is: dose: 100.0 mg/kg/injection, schedule: Q04DX003 (ip), vehicle: Klucel (hydroxypropylcellulose) (HPC).
Where [2] appears, read: dose: 200.0 mg/kg/injection, schedule: Q04DX003 (ip), vehicle: Klucel (hydroxypropylcellulose) (HPC).
Where [3] appears, read: dose: 200.0 mg/kg/injection, schedule: Q01DX001 (ip), vehicle: carboxymethylcellulose (CMC).
The mark [4] stands for this setting: dose: 400.0 mg/kg/injection, schedule: Q04DX003 (ip), vehicle: Klucel (hydroxypropylcellulose) (HPC).

Where “and” joins values, the source holds several entries; their conditions need not be identical. Equal entries are not always repeated. Toxic doses and inconclusive results are not listed.

As for `N#CC1CNC(=S)N=C1c1ccccc1` (stereo not given), the T/C under setting [1] was 100 % of control and the T/C under setting [2] was 95 % of control.
`Cc1cc(Cc2cccc[n+]2[O-])c2ccccc2n1`: the T/C by setting is: under setting [1], 102 % of control; under setting [2], 96 % of control.
As to `Nc1nc(N)nc(CCCCc2nc(N)nc(N)n2)n1`, the T/C under setting [3] is 90 % of control.
In the case of `CCCCCCCCCCC[CH2][Hg][Cl]`, the T/C (dose: 6.25 mg/kg/injection, schedule: Q04DX003 (ip), vehicle: Klucel (hydroxypropylcellulose) (HPC)) was 93 % of control.
Turning to `CC1(C)CC(=O)C2=C(C1)Nc1ccccc1NC2c1ccccc1` (stereo not given), the T/C was 92 % of control (dose: 50.0 mg/kg/injection, schedule: Q04DX002 (ip), vehicle: Klucel (hydroxypropylcellulose) (HPC)); 110 % of control and 113 % of control (dose: 100.0 mg/kg/injection, schedule: Q04DX002 (ip), vehicle: Klucel (hydroxypropylcellulose) (HPC)); 92 % of control (dose: 200.0 mg/kg/injection, schedule: Q04DX002 (ip), vehicle: Klucel (hydroxypropylcellulose) (HPC)); 98 % of control (dose: 400.0 mg/kg/injection, schedule: Q04DX002 (ip), vehicle: Klucel (hydroxypropylcellulose) (HPC)).
For `O=c1oc(-c2ccccc2)ccc1-c1ccccc1`, the T/C under setting [1] was 98 % of control, the T/C under setting [2] was 100 % of control and the T/C under setting [4] is 96 % of control.
Regarding `CN(C)CC1CC2(CC(CN(C)C)C1=O)OCCO2` (stereo not given), the T/C reads like this: (dose: 9.38 mg/kg/injection, schedule: Q01DX001 (ip), vehicle: other) 98 % of control; (dose: 18.75 mg/kg/injection, schedule: Q01DX001 (ip), vehicle: other) 97 % of control; (dose: 37.5 mg/kg/injection, schedule: Q01DX001 (ip), vehicle: other) 104 % of control.
`O=C(Nc1cccc(Cl)c1Cl)OCCN1CCNC1=S`: the T/C is 94 % of control (dose: 100.0 mg/kg/injection, schedule: Q01DX009 (ip), vehicle: saline); 96 % of control (dose: 200.0 mg/kg/injection, schedule: Q01DX009 (ip), vehicle: saline); 102 % of control (dose: 400.0 mg/kg/injection, schedule: Q01DX009 (ip), vehicle: saline).
As to `CN(C)N1C(=O)CC2(CCC(C(C)(C)C)CC2)CC1=O`, the T/C reads like this: (dose: 50.0 mg/kg/injection, schedule: Q01DX001 (ip), vehicle: carboxymethylcellulose (CMC)) 109 % of control; (dose: 100.0 mg/kg/injection, schedule: Q01DX001 (ip), vehicle: carboxymethylcellulose (CMC)) 95 % of control; under setting [3], 104 % of control; (dose: 400.0 mg/kg/injection, schedule: Q01DX001 (ip), vehicle: carboxymethylcellulose (CMC)) 104 % of control.
Take `COc1ccc(N=Nc2ccccc2)cc1`: the T/C is 95 % of control under setting [1], 94 % of control under setting [2] and 94 % of control under setting [4].
Take `NC(N)=N/N=C/C(=N/N=C(N)N)c1ccccc1`: the T/C (dose: 30.0 mg/kg/injection, schedule: Q01DX Z (oral), vehicle: carboxymethylcellulose (CMC)) is 108 % of control; the T/C (dose: 60.0 mg/kg/injection, schedule: Q01DX Z (oral), vehicle: carboxymethylcellulose (CMC)) is 115 % of control; the T/C (dose: 120.0 mg/kg/injection, schedule: Q01DX Z (oral), vehicle: carboxymethylcellulose (CMC)) is 105 % of control; the T/C (dose: 240.0 mg/kg/injection, schedule: Q01DX Z (oral), vehicle: carboxymethylcellulose (CMC)) was 103 % of control.
Consider `Cc1cc(=O)[nH]c2c(O)ccc([N+](=O)[O-])c12`, for which the T/C was 103 % of control (dose: 100.0 mg/kg/injection, schedule: Q04DX003 (ip), vehicle: saline); 103 % of control (dose: 200.0 mg/kg/injection, schedule: Q04DX003 (ip), vehicle: saline); 103 % of control (dose: 400.0 mg/kg/injection, schedule: Q04DX003 (ip), vehicle: saline).
As to `CCOc1cc(/C=N\NC(=O)CCCC(=O)N/N=C/c2ccc(O)c(OCC)c2)ccc1O`, under setting [3], the T/C was 95 % of control.
For the compound `COc1ccc(C)cc1NC(=O)c1ccc(F)cc1`, the T/C (dose: 100.0 mg/kg/injection, schedule: Q01DX009 (ip), vehicle: Klucel (hydroxypropylcellulose) (HPC)) is 94 % of control; the T/C (dose: 200.0 mg/kg/injection, schedule: Q01DX009 (ip), vehicle: Klucel (hydroxypropylcellulose) (HPC)) is 97 % of control; the T/C (dose: 400.0 mg/kg/injection, schedule: Q01DX009 (ip), vehicle: Klucel (hydroxypropylcellulose) (HPC)) was 100 % of control.
Regarding `CC(C)(C)C(=O)CC(=O)C(C)(C)C.CC(C)(C)C(=O)CC(=O)C(C)(C)C.CC(C)(C)C(=O)CC(=O)C(C)(C)C.[Gd]`, the T/C by setting is: (dose: 100.0 mg/kg/injection, schedule: Q04DX003 (ip), vehicle: saline with Tween-80) 101 % of control; (dose: 200.0 mg/kg/injection, schedule: Q04DX003 (ip), vehicle: saline with Tween-80) 101 % of control; (dose: 400.0 mg/kg/injection, schedule: Q04DX003 (ip), vehicle: saline with Tween-80) 92 % of control.
